{
  "source": "paper PMC7864197",
  "about": "“High-Content Analysis-Based Sensitivity Prediction and Novel Therapeutics Screening for c-Met-Addicted Glioblastoma” (Cancers, 2021)",
  "target": "c-Met (MET kinase) (Homo sapiens, UniProt P08581)",
  "sequence (P08581 25-307)": "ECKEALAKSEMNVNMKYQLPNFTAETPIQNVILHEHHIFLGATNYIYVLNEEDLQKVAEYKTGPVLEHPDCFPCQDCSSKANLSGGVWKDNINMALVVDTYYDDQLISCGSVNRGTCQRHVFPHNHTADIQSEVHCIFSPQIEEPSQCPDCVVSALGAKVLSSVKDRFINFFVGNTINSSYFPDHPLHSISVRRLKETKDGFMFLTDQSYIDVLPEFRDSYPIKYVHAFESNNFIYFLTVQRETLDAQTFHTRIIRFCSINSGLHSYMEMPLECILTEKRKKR",
  "sequence (P08581 308-1390)": "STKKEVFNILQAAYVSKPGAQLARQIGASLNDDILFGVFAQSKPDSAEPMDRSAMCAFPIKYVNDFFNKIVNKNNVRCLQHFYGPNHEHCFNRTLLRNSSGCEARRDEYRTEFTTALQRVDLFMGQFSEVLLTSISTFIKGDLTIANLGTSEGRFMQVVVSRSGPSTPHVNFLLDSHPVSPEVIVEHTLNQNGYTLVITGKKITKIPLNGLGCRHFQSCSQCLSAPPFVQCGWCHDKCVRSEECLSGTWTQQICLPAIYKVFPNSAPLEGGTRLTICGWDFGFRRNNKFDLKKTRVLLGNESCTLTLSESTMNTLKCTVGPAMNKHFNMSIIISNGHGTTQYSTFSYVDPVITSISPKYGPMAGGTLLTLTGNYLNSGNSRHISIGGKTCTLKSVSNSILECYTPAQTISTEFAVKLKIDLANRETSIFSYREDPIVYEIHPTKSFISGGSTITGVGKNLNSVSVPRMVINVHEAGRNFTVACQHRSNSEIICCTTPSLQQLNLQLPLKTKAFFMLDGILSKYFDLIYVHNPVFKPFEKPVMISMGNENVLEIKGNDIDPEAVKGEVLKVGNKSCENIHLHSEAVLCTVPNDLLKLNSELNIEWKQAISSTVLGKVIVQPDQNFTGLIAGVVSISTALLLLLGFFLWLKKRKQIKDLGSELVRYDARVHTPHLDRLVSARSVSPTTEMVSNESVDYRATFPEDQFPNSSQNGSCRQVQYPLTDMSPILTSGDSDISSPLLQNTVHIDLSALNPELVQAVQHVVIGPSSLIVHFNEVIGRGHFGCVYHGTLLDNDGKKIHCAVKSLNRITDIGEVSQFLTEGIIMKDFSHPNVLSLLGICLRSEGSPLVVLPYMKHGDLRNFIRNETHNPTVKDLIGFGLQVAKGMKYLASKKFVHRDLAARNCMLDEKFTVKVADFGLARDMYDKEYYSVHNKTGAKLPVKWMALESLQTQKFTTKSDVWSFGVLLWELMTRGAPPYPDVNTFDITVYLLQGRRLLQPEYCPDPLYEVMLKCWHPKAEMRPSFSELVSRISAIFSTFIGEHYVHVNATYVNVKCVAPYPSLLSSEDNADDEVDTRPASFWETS",
  "assay": "ADP-Glo MET kinase enzyme system (in vitro kinase assay)",
  "type": "biochemical",
  "data": [
    {"smiles": "CCN1CCN(Cc2ccc(Nc3ncc(F)c(-c4cc(F)c5nc(C)n(C(C)C)c5c4)n3)nc2)CC1", "note": "[Abemaciclib]", "values": [
      {"measurement": "ADP-Glo MET kinase enzyme system (in vitro kinase assay)", "result": "abemaciclib was shown to inhibit kinase activity of c-Met at high concentrations"}
    ]}
  ]
}
